# Measured values from patent US20090227492A1, “TREATMENT OF NEUROLOGICAL CONDITIONS USING COMPLEMENT C5a RECEPTOR MODULATORS” (priority 2004, published 2009).
# Bridge positions count the residues as written; N and C are the ends. Square brackets hold non-standard residues; d marks the D form. Peptide text beside a SMILES is read from it. * marks the point of attachment. Hydrocinnamoyl = O=C(CCc1ccccc1)*; Cit = NC(=O)NCCC[C@H](N)C(=O)O; dCha = N[C@H](CC1CCCCC1)C(=O)O; Orn = NCCC[C@H](N)C(=O)O
# Assays:
# 3-NP rat model [1] = assay: histological and histochemical examination of rat brain sections from the 3-NP model (naphthyl esterase, TUNEL); type: in vivo; conditions: brain sections of rats of Example 2
# Text: Paraffin sections of brain tissue from the rats used in Example 2 were stained with hematoxylin and eosin and examined under the microscope. […] The TUNEL (TdT-mediated dUTP Nick-End Labeling) assay (Gavrieli, Y., et al. (1992) J. Cell. Biol. 119, 493.) measures nuclear DNA fragmentation, which is an important biochemical hallmark of apoptosis. […] Brain sections were therefore also stained for TUNEL analysis using a standard kit (ApopTag Plus/TUNEL method; Chemicon). Striatal sections of brains containing the area of interest were fixed to a slide and deparaffinized. Slides were then pretreated with Proteinase K (20 μg/mL), and endogenous peroxidases quenched with 3% hydrogen peroxide. Equilibration buffer was then added, followed by TdT enzyme for 1 hour. Samples were then washed, and anti-digoxigenin conjugate added for 30 min. Peroxidase substrate (diaminobenzidine) was then added, and colour allowed to develop over 6 min. Samples were then counterstained with 0.5% methyl green and mounted with Permount. Sections were washed in PBS (0.1 M, ph 7.4) in between each step.
# 3-NP rat model [2] = assay: 3-NP rat model (3-nitropropionic acid neurotoxicity); type: in vivo
# Protocol: Unless otherwise stated, the protocol for induction of 3-NP neurotoxicity employed in the present study was similar to that of Blum et al (2001; 2002), except that we used 42 mg/kg/day for 7 days rather than 56 mg/kg for 5 days. Briefly, a 90 mg/mL solution of 3-NP in PBS (0.1 M, pH 7.4) was prepared and adjusted to pH 7.4 with 5M NaOH. Alzet osmotic mini-pumps (model 2ML1, delivering 10 μL/hr for 7 days) filled with this solution were implanted into 12 week old male Lewis rats, so that each rat received exactly 42 mg/kg/day.
# Rats were housed in individual cages. The rats were anaesthetised with ketamine, xylazine and zolazapam. A pump was inserted s.c. into the back of each rat via an incision between the scapulae, and the incision closed with wound clips. Following recovery from anaesthesia, food intake, body weight and neurological were evaluated daily over the next 7 days. Neurological and behavioural evaluation according to standard criteria was also performed at several points by an observer blinded to the identity of the groups.
# After completion of the study, rats were deeply anaesthetised with xylazine and ketamine. The rats were then perfused with approximately 100 mL of sodium nitrite solution to remove blood, followed by approximately 400 mL of formaldehyde solution to fix the brains in situ. Brains were then carefully removed and stored in formaldehyde solution for at least 3 days, before processing for histology. Slides were stained with cresyl violet and examined by light microscopy. […]
# PMX53 (10 mg/kg/day) and PMX205 (10 mg/kg/day) were administered daily by gavage and ibuprofen (30 mg/kg/day) administered in the drinking water, beginning 2 days prior to 3-NP administration. Infliximab was administered as a single 5 mg/kg i.v. infusion on Day 0. […]
# [3] = test system: Transgenic Sprague-Dawley rats carrying mutant SOD-1 gene; assay: transgenic SOD-1 rat model of ALS; type: in vivo; conditions: approximately 1 mg/kg/day in drinking water from 70 days of age; for average age of onset of loss of motor function: male rats, untreated 116+/−4 days; for percent survival over time (mortality) / percentage of rats showing onset of motor symptoms over time: vs untreated
# Protocol: Treatment commenced when the rats were 70 days of age. Drugs were dosed in the drinking water at approximately 1 mg/kg/day. A group of 3 wild type (WT) Sprague-Dawley rats (G63) were included as sham control animals. Rats were then monitored daily for signs of motor disturbance, using the following scale:
# Body weights were also recorded daily. Rats were euthanised when they reached a score of 4 for the righting response, or had lost >20% of their peak body weight.
# [4] = levels of PMX compounds in brain and plasma following i.v. injection (blood-brain barrier); conditions: female Wistar rats; 3 mg/kg i.v.; 15 min; brain perfused with saline
# Protocol: Rats were then left for 15 min, at which point a sample of blood was taken from the tail for plasma collection, and rats were then perfused via cardiac puncture with 150 mL of saline to remove blood from the brain. The brain was then dissected out. Plasma and brain samples of were prepared for pharmacokinetic analysis, and the levels of PMX compounds determined in each sample.
# [5] = Example 2, PMX53, PMX205 10 mg/kg/day gavage, ibuprofen 30 mg/kg/day drinking water, infliximab 5 mg/kg i.v. Day 0, 7 days
Molecule,degree of apoptosis (TUNEL) (3-NP rat model [1]),neutrophil infiltration (naphthyl esterase stain) (3-NP rat model [1]),neurological/behavioural score (3-NP rat model [2]; [5]),average age of onset of loss of motor function [3] [days],percent survival over time (mortality) [3],percentage of rats showing onset of motor symptoms over time [3],further results
"CC(=O)N[C@@H](Cc1ccccc1)C(=O)N[C@H]1CCCNC(=O)[C@H](CCCNC(=N)N)NC(=O)[C@H](Cc2c[nH]c3ccccc23)NC(=O)[C@@H](CC2CCCCC2)NC(=O)[C@@H]2CCCN2C1=O [PMX53, AcPhe[Orn-Pro-D-Cyclohexylalanine-Trp-Arg]]",reduced the degree of apoptosis,completely prevented neutrophil infiltration,significant protection,124 ± 10,possibly a small improvement,possibly a small improvement,"loss of body weight (3-NP rat model [2]; Example 1 pilot, 2 mg/kg daily in drinking water plus 1 mg/kg s.c. Days 0, 3, 6, 8, Days 5-7, P<0.05, n=5, vs untreated): significantly less loss of body weight; neurological/behavioural score (3-NP rat model [2]; Example 1 pilot, 2 mg/kg daily in drinking water plus 1 mg/kg s.c., Days 4-9, P<0.05, n=5, vs untreated): significantly decreased neurological/behavioural scores; food intake (3-NP rat model [2]; Example 1 pilot, 2 mg/kg daily in drinking water plus 1 mg/kg s.c., Days 5-7, P<0.05, n=5, vs untreated): significantly greater food intake; necrotic cells in the striatal regions (cresyl violet histology) (3-NP rat model [2]; Example 1 pilot, vs controls): fewer necrotic cells; necrotic cells in the striatal regions (cresyl violet histology) (3-NP rat model [2]; Example 2, 10 mg/kg/day gavage, day 7): fewer necrotic cells"
infliximab [reference compound],–,–,little if any effect,–,–,–,–
"NC(=O)NCCC[C@@H]1NC(=O)[C@H](Cc2c[nH]c3ccccc23)NC(=O)[C@@H](CC2CCCCC2)NC(=O)[C@@H]2CCCN2C(=O)[C@@H](NC(=O)CCc2ccccc2)CCCNC1=O [PMX200, HC-[OPdChaWCit]] (Hydrocinnamoyl-[Orn]P[dCha]W[Cit]; lactam 1-C)",–,–,–,–,–,–,levels in the brain as a percentage of the levels in the blood (absorption into the brain) [4]: lower degree of absorption
"CC(C)Cc1ccc(C(C)C(=O)O)cc1 (stereo not drawn) [ibuprofen, reference compound]",–,–,an effect only up to Day 5,–,–,–,–
"N=C(N)NCCC[C@@H]1NC(=O)[C@H](Cc2c[nH]c3ccccc23)NC(=O)[C@@H](CC2CCCCC2)NC(=O)[C@@H]2CCCN2C(=O)[C@@H](NC(=O)CCc2ccccc2)CCCNC1=O [PMX205, Hydrocinnamate-[OpdChaWR]] (Hydrocinnamoyl-[Orn]P[dCha]WR; lactam 1-C)",reduced the degree of apoptosis,completely prevented neutrophil infiltration,significant protection,138 ± 7,clear delay of mortality,clear delay of motor onset,period between the first loss of body weight and the first observable loss of motor function [3]: particularly striking
